Measurements taken from US11760744B2, “Fused ring compounds” (Genentech, Inc., priority 2018, dated 2023).
pEC50, pIC50: −log10 of the molar value.

Columns and labels:
K-Ras G12C [1] = target: T1, K-Ras G12C (Homo sapiens, UniProt P01116, G12C); assay: K-Ras G12C, SOS1, Raf RBD HTRF assay for inhibition of GTP exchange; type: biochemical; set-up: K-Ras G12C (residues 2-188) and SOS1 (residues 564-1049) had N-terminal 6-His; made in house; host or cells: E. coli; conditions: 18 hours preincubation with K-Ras G12C at room temperature; SOS1-mediated GTP exchange
Experimental: K-Ras G12C, SOS1, Raf RBD Homogeneous Time Resolved Fluorescence (HTRF) Assay for Inhibition of GTP Exchange
After 18 hours at room temperature, the SOS1 GTP exchange factor (1.67 nM during exchange, 1.25 nM final) was added to initiate nucleotide exchange to GTP (200 μM during exchange, 150 μM final). The level of GTP exchange was assessed by addition of a Ras binding domain derived from C-Raf and the HTRF detection antibodies Tb-anti-FLAG and D2-anti-his (Cis-Bio) at 50 nM, 1 nM and 12.5 nM, respectively. After 2 hours, the ratio of 665 nm to 615 nm emission with 320 nm excitation was measured on an Envision plate reader (Perkin Elmer).
The final reaction volume was 20 μl in a ProxiPlate-384F Plus (Perkin Elmer), in buffer containing 20 mM HEPES, 150 mM NaCl, 1 mM MgCl2, 0.1% BSA, 0.03% Tween-20 and 1 mM DTT. […] HTRF data are presented below in Table 2.
Target sequence in this assay (P01116 2-188 isoform P01116-2 G12C): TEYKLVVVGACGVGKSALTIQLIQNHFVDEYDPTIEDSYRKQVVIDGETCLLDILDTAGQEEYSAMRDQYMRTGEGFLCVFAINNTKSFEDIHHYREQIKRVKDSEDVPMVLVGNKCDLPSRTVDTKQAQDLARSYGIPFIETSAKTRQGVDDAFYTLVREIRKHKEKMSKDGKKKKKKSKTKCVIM

K-Ras G12C [2] = target: T1, K-Ras G12C; assay: Western blot assay for in cell alkylation of K-Ras G12C (HCC1171 cells); type: cell-based; set-up: endogenous in cells; host or cells: HCC1171; conditions: 18 hours at 37° C., 7 point dose response
Experimental: Western Blot Assay for in Cell Alkylation of K-Ras G12C
HCC1171 cells were maintained in RPMI1640 supplemented with 10% FBS. Cells were plated in a 96-well plate at 20,000 cells/well and the following day compounds were added to the cells. After 18 hours at 37° C., cells were lysed in RIPA buffer (Sigma R0278) with 0.5% SDS and protease/phosphatase inhibitor cocktail. After through mixing to enable complete lysis, the lysates were cleared by centrifugation before 20 μl was transferred from each well and combined with loading buffer and reducing agent. After heating for 10 minutes at 95° C., 15 μl of each sample was loaded onto a 4-20% Tris-Glycine gel and electrophoresed at 110V for 165 minutes in SDS-PAGE running buffer. Gels were transferred to a nitrocellulose membrane, blocked for 1 hour and stained overnight at 4° C. with primary antibody against K-Ras (polyclonal Proteintech 12063-1-AP). The membrane was then washed thoroughly and counterstained with anti-rabbit IRDye 800CW (LI-COR 926-32211) for one hour at room temperature. After final washes, the membrane was imaged on a LI-COR Odyssey CLx at medium resolution. Alkylated K-Ras was visible by an electrophoretic shift from unmodified K-Ras. To quantify this affect, the LICOR software was used to draw a rectangle over alkylated and unalkylated bands for each well and measured the total fluorescent intensity (FI) in each of these bands. The following formula was then used to calculate % alkylation: FI(alkylated)/(FI(alkylated)+FI(unalkylated))*100 for each well.
A 7 point dose response curve was used to determine the IC50 for each compound. Cell alkylation data are presented below in Table 2.
Target sequence in this assay (P01116 1-188 isoform P01116-2 G12C): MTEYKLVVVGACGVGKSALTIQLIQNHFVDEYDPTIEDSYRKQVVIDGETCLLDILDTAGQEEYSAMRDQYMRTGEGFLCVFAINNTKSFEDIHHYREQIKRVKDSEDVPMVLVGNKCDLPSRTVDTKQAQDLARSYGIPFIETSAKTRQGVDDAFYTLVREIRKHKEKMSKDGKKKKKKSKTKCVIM

Row | Compound | pIC50 (K-Ras G12C [1]) | pEC50 (K-Ras G12C [2])
1 | C=CC(=O)N1CCN(c2nc(OC[C@@H]3CCCN3C)nc3c2C[C@H](C(C)C)[C@@H](c2nc(N)cc(C)c2C(F)(F)F)C3)[C@@H](C)C1 (single isomer, unassigned) [Example 33b] | 6.52 | 5.66
2 | C=CC(=O)N1CCN(c2ncnc3c2CC[C@@H](c2nc(N)cc(C)c2C(F)(F)F)C3)CC1 [Example 26b, (R)-1-(4-(7-(6-amino-4-methyl-3-(trifluoromethyl)pyridin-2-yl)-5,6,7,8-tetrahydroquinazolin-4-yl)piperazin-1-yl)prop-2-en-1-one] | 5.32 | 4.77
3 | C=CC(=O)N1CCN(c2ncnc3c2CC[C@H](c2cncc4ccccc24)C3)CC1 (single isomer, unassigned) [Example 44b] | 5.06 | 6.00
4 | C=CC(=O)N1CCN(c2nc(OC[C@@H]3CCCN3C)nc3c2CC[C@@H](c2cc(O)cc4ccccc24)C3)C[C@H]1CC#N (single isomer, unassigned) [Example 58e] | 7.54 | 6.96
5 | C=C(F)C(=O)N1CCN(c2nc(OC[C@@H]3CCCN3C)nc3c2CC[C@@H](c2cc(O)cc4ccccc24)C3)C[C@H]1CC#N (single isomer, unassigned) [Example 61d] | 7.55 | 7.96
6 | C=CC(=O)N1CCN(c2ncnc3c2CC[C@H](c2c(F)c(N)cc(C)c2C(F)(F)F)C3)CC1 (single isomer, unassigned) [Example 27a] | 7.05 | 6.47
7 | COc1ccc(CN(Cc2ccc(OC)cc2)c2cc(C)c(I)c([C@@H]3Cc4nc(OC[C@@H]5CCCN5C)nc(N5CCN(C(=O)OC(C)(C)C)C[C@@H]5C)c4C[C@H]3C)c2F)cc1 (single isomer, unassigned) [Example 14a] | < 4.30 | 6.00
8 | C=CC(=O)N1CCN(c2ncnc3c2CC[C@@H](c2c(F)c(N)cc(F)c2C(F)(F)F)C3)CC1 (single isomer, unassigned) [Example 13a] | 5.70 | 
9 | C=CC(=O)N1CCC(C#N)(c2nc(OC[C@@H]3CCCN3C)nc3c2CCC(c2cc(O)cc4ccccc24)C3)CC1 (stereo partly drawn) [Example 7a, 4-[7-(3-hydroxy-1-naphthyl)-2-[[(2S)-1-methylpyrrolidin-2-yl]methoxy]-5,6,7,8-tetrahydroquinazolin-4-yl]-1-prop-2-enoyl-piperidine-4-carbonitrile] | 7.06 | 5.60
10 | C=CC(=O)N1CCN(c2nc(OC[C@@H]3C[C@@H](F)CN3C)nc3c2C[C@H](C)[C@@H](c2c(F)c(N)cc(C)c2C(F)(F)F)C3)[C@@H](C)C1 (single isomer, unassigned) [Example 36a] | 6.44 | 6.57
11 | C=C(F)C(=O)N1CCN(c2nc(OC[C@@H]3CCCN3C)nc3c2C[C@H](C)[C@@H](c2c(F)c(N)cc(C)c2C(F)(F)F)C3)C[C@H]1CC#N (single isomer, unassigned) [Example 34b] | 6.17 | 5.92
12 | C=CC(=O)N1CCN(c2ncnc3c2C[C@@H](C)[C@H](c2nc(N)cc(C)c2C(F)(F)F)C3)CC1 (single isomer, unassigned) [Example 8b] | 7.35 | 7.05
13 | C=C(F)C(=O)N1CCN(c2nc(OC[C@@H]3CCCN3C)nc3c2CC[C@H](c2cc(O)cc4ccccc24)C3)C[C@@H]1CC#N (single isomer, unassigned) [Example 61c] | 7.08 | 5.74
14 | C=CC(=O)N1CCN(c2nc(OC[C@@H]3CCCN3C)nc3c2C[C@H](C)[C@@H](c2nc(N)cc(C)c2C(F)(F)F)C3)CC1 (single isomer, unassigned) [Example 20b] | 5.85 | 5.68
15 | CN1CCC[C@H]1COc1nc2c(c(N3CCN(C(=O)/C=C/CF)[C@H](CC#N)C3)n1)CCC(c1cc(O)cc3ccccc13)C2 (single isomer, unassigned) [Example 62d] | > 8.00 | 8.19
16 | C=CC(=O)N1CCN(c2nc(OC[C@@H]3C[C@@H](F)CN3C)nc3c2C[C@H](C)[C@@H](c2nc(N)cc(C)c2C2CC2)C3)[C@@H](C)C1 (single isomer, unassigned) [Example 24a] | < 4.30 | 
17 | CNC/C=C/C(=O)N1CCN(c2ncnc3c2C[C@@H](C)[C@H](c2c(C)ccc4[nH]ncc24)C3)CC1 (single isomer, unassigned) [Example 19a] | 6.03 | 4.92
18 | C=CC(=O)N1CCN(c2ncnc3c2C[C@H](C)[C@@H](c2nc(N)ccc2C(F)(F)F)C3)CC1 (single isomer, unassigned) [Example 42a] | 5.57 | 

Row | Compound | pIC50 (K-Ras G12C [1]) | pEC50 (K-Ras G12C [2])
19 | C=CC(=O)N1CCN(c2ncnc3c2CC[C@@H](c2c(F)c(N)cc(C)c2C(F)(F)F)C3)CC1 (single isomer, unassigned) [Example 27b] | 5.52 | 
20 | C=CC(=O)N1CCN(c2ncnc3c2CC[C@@H](c2cccc4c2CCC4)C3)CC1 (single isomer, unassigned) [Example 6b] | < 4.30 | 
21 | C=CC(=O)N1CCN(c2nc(OC[C@@H]3C[C@H](F)CN3C)nc3c2CC[C@@H](c2cc(O)cc4ccccc24)C3)[C@@H](C)C1 (single isomer, unassigned) [Example 30b] | 5.92 | 
22 | C=CC(=O)N1CCN(c2ncnc3c2C[C@H](C)[C@@H](c2cc(CO)ccc2C)C3)CC1 (single isomer, unassigned) [Example 4a] | < 4.30 | 
23 | C=CC(=O)N1CCN(c2ncnc3c2C[C@H](C)[C@@H](c2nc(N)cc(C)c2C(F)(F)F)C3)CC1 (single isomer, unassigned) [Example 8a] | 5.46 | 
24 | C=CC(=O)N1CCN(c2ncnc3c2CC[C@@H](c2c(C)c(C)cc4[nH]cnc24)C3)CC1 (single isomer, unassigned) [Example 10a] | 4.72 | 
25 | C=CC(=O)N1CCN(c2nc(OC[C@@H]3CCCN3C)nc3c2C[C@H](C)[C@@H](c2c(C)c(C)cc(N)c2F)C3)[C@@H](C)C1 (single isomer, unassigned) [Example 11a] | 5.89 | 
26 | C=CC(=O)N1CCN(c2ncnc3c2CC[C@H](c2c(C)ccc4c2COC4)C3)CC1 (single isomer, unassigned) [Example 9a] | 5.38 | 
27 | C=CC(=O)N1CCN(c2ncnc3c2CC[C@@H](c2c(C)ccc4c2COC4)C3)CC1 (single isomer, unassigned) [Example 9b] | < 4.30 | 
28 | C=CC(=O)N1CCN(c2nc(OC[C@@H]3COC(=O)N3C)nc3c2CC[C@@H](c2cc(O)cc4ccccc24)C3)[C@@H](C)C1 (single isomer, unassigned) [Example 57b] | 4.85 | 
29 | C=C(F)C(=O)N1CCN(c2nc(OC[C@@H]3CCCN3C)nc3c2CCC(c2cccc4ccccc24)C3)CC1CC#N (single isomer, unassigned) [Example 47b] | 5.82 | 
30 | C=CC(=O)N1CCN(c2ncnc3c2CC[C@@H](c2nc(N)ccc2C(F)(F)F)C3)CC1 (single isomer, unassigned) [Example 46a] | 5.70 | 
31 | C=CC(=O)N1CCN(c2nc(OC[C@@H]3C[C@@H](F)CN3C)nc3c2C[C@H](C)[C@@H](c2nc(NC)cc(C)c2C(F)(F)F)C3)[C@@H](C)C1 (single isomer, unassigned) [Example 5a] | < 4.70 | 
32 | CNC/C=C/C(=O)N1CCN(c2ncnc3c2C[C@H](C)[C@@H](c2c(C)ccc4[nH]ncc24)C3)CC1 (single isomer, unassigned) [Example 19b] | < 4.52 | 
33 | C=CC(=O)N1CCN(c2nc(OC[C@@H]3CCCN3C)nc3c2CCCC3)CC1 [Example 45a, 1-[4-[2-[[(2S)-1-methylpyrrolidin-2-yl]methoxy]-5,6,7,8-tetrahydroquinazolin-4-yl]piperazin-1-yl]prop-2-en-1-one] | < 4.30 | 
34 | C=CC(=O)N1CCN(c2ncnc3c2CC[C@H](c2cccc4c2CCC4)C3)CC1 (single isomer, unassigned) [Example 6a] | 5.64 | 
35 | C=CC(=O)N1CCN(c2nc(OCc3cn(C)cn3)nc3c2CCC(c2cc(O)cc4ccccc24)C3)[C@@H](C)C1 (stereo partly drawn) [Example 54a, 1-((3S)-4-(7-(3-hydroxynaphthalen-1-yl)-2-((1-methyl-1H-imidazol-4-yl)methoxy)-5,6,7,8-tetrahydroquinazolin-4-yl)-3-methylpiperazin-1-yl)prop-2-en-1-one] | 6.33 | 
